Consider 8 compounds from US20190085334A1, “TREATMENT OF NEUROINFLAMMATION IN NEUROLOGICAL DISORDERS” (Board of Trustees of Michigan State University, priority 2017, published 2019).

Assay [1] relates to CXCL10 production from monocytes. The experiment in a line: CXCL10 production from interferon-stimulated monocytes, intracellular staining on flow cytometry. Type of assay: cell-based, human. As to the method: (§1) Cells are plated at 3×10^5 cells/well for PBMC and isolated monocyte experiments, and 1×10^5 cell/well for isolated neutrophil experiments, in 96-well plates. Cells are cultured in complete RPMI (RPMI 1640, 10% FBS, 1×PSF). For cross-linking experiments 10 μg/mL anti-SLAMF7 mAb or SLAMF7-Fc is added to a sterile, high-binding 96-well cell culture plate O/N at 4° C. For all in vitro flow cytometry experiments, cells are cultured in the presence of stimuli for 17-18 h. In the monocyte maturation assay as shown in FIG. 18E the cells are stimulated with only 25 IU/mL IFNα for exactly 24 h. Small molecule inhibitors are added 45-60 min before IFNα for all relevant experiments. For experiments involving intracellular staining, BD GolgiPlug is added for the final 5 h. NK92 cells are purchased from ATCC and cultured as indicated by manufacturer.
(§2) Cells are prepared and stained as previously described. Intracellular staining is performed using the BD fixation/permeabilization kit (BD Biosciences) per manufacturer's instructions. Transcription factor staining is performed with the Transcription Factor Buffer Set (BD Pharmingen) per manufacturer's instructions. Samples are analyzed on either a BD LSR II or BD FACSCanto. LIVE/DEAD staining with Aqua fixable stain (ThermoFisher) is included during initial experiments and cell viability is verified to be greater than 90%.

In assay [2] the test system is SLAMF7 expression on monocytes. The experiment in a line: SLAMF7 expression on PBMCs and monocytes by flow cytometry. Type of assay: cell-based, human. As to the method:
as §1, §2
(Flow cytometry measures light scatter and fluorescence of single cells or particles in a stream.)

A further assay deals with isolated monocytes. The experiment in a line: qRT-PCR of chemokine and ISG mRNA in isolated monocytes. The settings on record: IFNα and SLAMF7 cross-linking; SHP1/2 inhibitor 10 μM. Type of assay: cell-based, human. How it is done:
Isolated monocytes are plated in 96-well plates at 3×10^5 cells/well and stimulated as indicated for 4 h. Cells are harvested and placed into Trizol (ThermoFisher) and RNA is isolated per manufacturer's instructions. RNA is reverse transcribed with SuperStrand First Strand Synthesis Kit III (Invitrogen) per manufacturer's instructions and analyzed on a QuantStudio7 system (ThermoFisher). GAPDH is used as a housekeeping gene and the ΔΔCt method is used for analysis.
Background: Quantitative PCR measures a nucleic acid by following its amplification.

The next assay deals with T1, CXCL10 (Homo sapiens, UniProt P02778).
T1 sequence (P02778 22-98): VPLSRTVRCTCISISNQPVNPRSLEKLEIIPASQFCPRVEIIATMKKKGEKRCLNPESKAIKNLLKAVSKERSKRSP
The settings on record: monoclonal antibodies to reduce CXCL10; cited from earlier work.

Assay [3] relates to SLAMF7 expression on neutrophils. The experiment in a line: SLAMF7 expression on neutrophils by flow cytometry. Type of assay: cell-based, human. The conditions noted are these: presence and absence of IFNα stimulation. As to the method:
as §1
Cells are prepared and stained as previously described. Intracellular staining is performed using the BD fixation/permeabilization kit (BD Biosciences) per manufacturer's instructions. […] Samples are analyzed on either a BD LSR II or BD FACSCanto. […]
(§3) CD14^+ monocytes are isolated from PBMCs via positive selection using CD14 Microbeads (Miltenyi Biotec) per manufacturer's instructions. Purity is consistently greater than 90% as assessed by flow cytometry. […] Purity is consistently greater than 98% as assessed by flow cytometry.

The test system of a further assay is isolated neutrophils. The experiment in a line: Cytokine/chemokine release from isolated neutrophils, BioPlex assay. Type of assay: cell-based, human. As to the method:
as §1
For analysis of cell culture, supernatant and plasma samples 80 μL of media or plasma is used, undiluted, and the assay is run per manufacturer's instructions (Bio-Rad, Hercules, Calif.) via Luminex 100 technology. […]
as §3

Setting [4] is: SLAMF7-stimulated cells, IFNα, 100 nM.

Consider `CC(C)CCC[C@@H](C)[C@H]1CC[C@H]2[C@@H]3CCC4C[C@H](N)CC[C@]4(C)[C@H]3CC[C@]12C` (some centres unmarked) [3AC], for which the “recovery of CXCL10 expression” value in assay [1] (monocytes stimulated with IFNα and SLAMF7 cross-linking, pre-treatment 5 μM) is recorded as “does not result in recovery of CXCL10 expression”.
Consider `CC(C)C[C@H](NC(=O)[C@H](Cc1ccccc1)NC(=O)c1cnccn1)B(O)O` [Bortezomib], for which the “SLAMF7 expression on monocytes” value in assay [2] (with IFNα, 100 nM) is on record as “acts synergistically with IFNα to upregulate SLAMF7 expression”. In addition, in assay [1] (setting [4]), the CXCL10 production result is recorded as “further decreases CXCL10 production” and the “recovery of CXCL10 expression” value is “does not result in recovery of CXCL10 expression”.
Regarding `CC(C)(C)C(=O)Nc1ccc2c(c1)C(=O)C(=O)c1ccccc1-2` [CAS 345630-40-2], the “rescue of CXCL10 production” value in assay [1] (IFNα and SLAMF7 cross-linking, pre-treatment 1 μM) is “fails to rescue CXCL10 production”.
In the case of `O=C(/C=C/c1ccc(CN(CCO)CCc2c[nH]c3ccccc23)cc1)NO` [Dacinostat], the “IFNα-mediated SLAMF7 up-regulation” value in assay [2] (classical monocytes, IFNα plus HDACi) is “prevents IFNα-mediated SLAMF7 up-regulation”.
Regarding `O=S(=O)(O)c1ccc2cc(N=Nc3cc(S(=O)(=O)O)c4cccnc4c3O)ccc2c1` [NSC87877], the “involvement of SHP1/2 in alpha chemokine inhibition” value in the assay with isolated monocytes was “not involved in alpha chemokine inhibition”. Further, the “recovery of CXCL10 expression” value in assay [1] (monocytes stimulated with IFNα and SLAMF7 cross-linking, pre-treatment 10 μM) is on record as “does not result in recovery of CXCL10 expression”.
Turning to “BMS-936557: anti-CXCL10 monoclonal antibody (Brisol-Myers Squibb)”, the anti-inflammatory activity entry in the assay with CXCL10 is given as “limited anti-inflammatory activity”.
As for IFNα, the “SLAMF7 response of CD14+ monocytes” value in assay [2] (CD14+ monocytes, IFNα 100 IU/mL) was “most robust SLAMF7 response”. Moreover, the “percent of SLAMF7+ PBMCs” value in assay [2] (total PBMCs from HIV+ patients, IFNα 100 IU/mL) is “minor, but significant increase”. The “SLAMF7 expression on neutrophils” value in assay [3] is reported as “unable to upregulate SLAMF7”. Besides, the “CXCL10 release from neutrophils” value in the assay with isolated neutrophils (IFNα by itself, neutrophils from HCs and HIV+ patients) is “can induce CXCL10 release”.
With lipopolysaccharide [LPS], in the assay on isolated neutrophils (LPS added to IFNα), the “CXCL10 release from neutrophils” value is reported as “enhanced”.
